Reference: patent publication US9937183B2, “Antimicrobial compounds and methods of making and using the same” (priority 2013, dated 2018)
Values after ≈ are worked out from the molar mass of the structure shown. Where two headings read alike, the source gives them in different places.

Assays:
Type in all cases: cell-based
E. coli ATCC25922 = assay: MIC, microtiter-based liquid assay (CLSI); conditions: Escherichia coli
P. aeruginosa 1705904 = assay: MIC, microtiter-based liquid assay (CLSI); conditions: Pseudomonas aeruginosa, MDR strain
S. aureus 11540 MRSA = assay: MIC, microtiter-based liquid assay (CLSI); conditions: Staphylococcus aureus
E. coli CAG12184 TolC = assay: MIC, microtiter-based liquid assay (CLSI); conditions: Escherichia coli, CAG12184TOLC
B. anthracis = assay: microbe, parasite or virus in culture; conditions: Bacillus anthracis; for MIC50: read-out: B. anthracis MIC50; for MIC90: read-out: B. anthracis MIC90; for MIC: read-out: B. anthracis MIC Range
Y. pestis = assay: microbe, parasite or virus in culture; conditions: Yersinia pestis; for MIC50: read-out: Y. pestis MIC50; for MIC90: read-out: Y. pestis MIC90; for MIC: read-out: Y. pestis MIC Range
F. tularensis = assay: microbe, parasite or virus in culture; conditions: Francisella tularensis; for MIC50: read-out: F. tularensis MIC50; for MIC90: read-out: F. tularensis MIC90; for MIC: read-out: F. tularensis MIC Range
A. baumannii 1705943 = assay: MIC, microtiter-based liquid assay (CLSI); conditions: Acinetobacter baumannii
E. coli 1705878 = assay: MIC, microtiter-based liquid assay (CLSI); conditions: Escherichia coli, MDR strain
A. baumannii 1705936 = assay: MIC, microtiter-based liquid assay (CLSI); conditions: Acinetobacter baumannii, MDR strain
K. pneumoniae 1705949 = assay: MIC, microtiter-based liquid assay (CLSI); conditions: Klebsiella pneumoniae, MDR strain
P. aeruginosa 1705886 = assay: MIC, microtiter-based liquid assay (CLSI); conditions: Pseudomonas aeruginosa
P. aeruginosa ATCC27853 = assay: MIC, microtiter-based liquid assay (CLSI); conditions: Pseudomonas aeruginosa
B. pseudomallei = assay: microbe, parasite or virus in culture; conditions: Burkholderia pseudomallei; for MIC50: read-out: B. pseudomallei MIC50; for MIC90: read-out: B. pseudomallei MIC90; for MIC: read-out: B. pseudomallei MIC Range
B. mallei = assay: microbe, parasite or virus in culture; conditions: Burkholderia mallei; for MIC50: read-out: B. mallei MIC50; for MIC90: read-out: B. mallei MIC90; for MIC: read-out: B. mallei MIC Range
[1] = tested on: E. faecium A6349 VanA + LNZ-R; assay: MIC, microtiter-based liquid assay (CLSI); conditions: Enterococcus faecium
E. coli MG1655 parent = assay: MIC, microtiter-based liquid assay (CLSI); conditions: Escherichia coli
[2] = tested on: S. pneumoniae 02J1175 Mef(A); assay: MIC, microtiter-based liquid assay (CLSI); conditions: Streptococcus pneumoniae
K. pneumoniae 1705966 = assay: MIC, microtiter-based liquid assay (CLSI); conditions: Klebsiella pneumoniae
[3] = ATCC25922, read-out: MIC E. coli ATCC25922 + 50% HS
[4] = ATCC25922, read-out: MIC E. coli ATCC25922

Row | Structure (SMILES) | MIC (E. coli ATCC25922; [3]) [µg/mL] | MIC (E. coli ATCC25922; [4]) [µg/mL] | MIC (P. aeruginosa 1705904) [µg/mL] | MIC (S. aureus 11540 MRSA) [µg/mL] | MIC (E. coli CAG12184 TolC) [µg/mL] | MIC50 (B. anthracis) [µg/mL] | MIC90 (B. anthracis) [µg/mL] | MIC (B. anthracis) [µg/mL] | MIC50 (Y. pestis) [µg/mL] | MIC90 (Y. pestis) [µg/mL] | MIC50 (F. tularensis) [µg/mL] | MIC90 (F. tularensis) [µg/mL] | MIC (F. tularensis) [µg/mL] | MIC (A. baumannii 1705943) [µg/mL] | MIC (E. coli 1705878) [µg/mL] | MIC (A. baumannii 1705936) [µg/mL] | MIC (K. pneumoniae 1705949) [µg/mL] | MIC (P. aeruginosa 1705886) [µg/mL] | MIC (P. aeruginosa ATCC27853) [µg/mL] | MIC50 (B. pseudomallei) [µg/mL] | also measured
1 | C[C@H](N)CCCc1cc(OC(F)(F)F)c(F)c(-c2cc3cn(-c4ccc([C@H](C)NCCCNC(=N)N)cc4)c(=O)nc3[nH]2)c1 [Compound 3] | 0.5 | 0.25 (≈ 0.405 µM) | 8 (≈ 13 µM) | 0.25 (≈ 0.405 µM) | 0.25 (≈ 0.405 µM) | 0.25 (≈ 0.405 µM) | 0.25 (≈ 0.405 µM) | 0.03 to 2 (≈ 0.0486 to 3.24 µM) | 0.25 (≈ 0.405 µM) | 0.5 (≈ 0.811 µM) | ≤ 0.03 | 0.12 (≈ 0.195 µM) | 0.03 to 1 (≈ 0.0486 to 1.62 µM) | 0.25 (≈ 0.405 µM) | 0.5 (≈ 0.811 µM) | 2 (≈ 3.24 µM) | 1 (≈ 1.62 µM) | 4 (≈ 6.49 µM) | 8 (≈ 13 µM) | 2 (≈ 3.24 µM) | MIC (Y. pestis): 0.03 to 1 µg/mL (≈ 0.0486 to 1.62 µM); MIC90 (B. pseudomallei): 4 µg/mL (≈ 6.49 µM); MIC (B. pseudomallei): 0.5 to 8 µg/mL (≈ 0.811 to 13 µM); MIC50 (B. mallei): 0.06 µg/mL (≈ 0.0973 µM); MIC90 (B. mallei): 0.12 µg/mL (≈ 0.195 µM); MIC (B. mallei): 0.03 to 0.5 µg/mL (≈ 0.0486 to 0.811 µM); MIC [1]: 2 µg/mL; MIC (E. coli MG1655 parent): 0.5 µg/mL (≈ 0.811 µM); MIC [2]: 0.25 µg/mL (≈ 0.405 µM); MIC (K. pneumoniae 1705966): 0.25 µg/mL (≈ 0.405 µM)
2 | C[C@H](NCCCNC(=N)N)c1ccc(-n2cc3cc(-c4cc(CCC5(CN)CC5)cc(Cl)c4F)[nH]c3nc2=O)cc1 [Compound 4] | 0.5 | 0.125 (≈ 0.216 µM) | 4 (≈ 6.91 µM) | 0.25 (≈ 0.432 µM) | 0.25 (≈ 0.432 µM) | 0.5 (≈ 0.863 µM) | 0.5 (≈ 0.863 µM) | 0.06 to 4 (≈ 0.104 to 6.91 µM) | 0.25 (≈ 0.432 µM) | 0.25 (≈ 0.432 µM) | ≤ 0.03 | ≤ 0.03 | 0.03 to 1 (≈ 0.0518 to 1.73 µM) | 0.25 (≈ 0.432 µM) | 0.5 (≈ 0.863 µM) | 4 (≈ 6.91 µM) | 1 (≈ 1.73 µM) | 2 (≈ 3.45 µM) | 4 (≈ 6.91 µM) | 2 (≈ 3.45 µM) | MIC (Y. pestis): 0.03 to 0.5 µg/mL (≈ 0.0518 to 0.863 µM); MIC90 (B. pseudomallei): 4 µg/mL (≈ 6.91 µM); MIC (B. pseudomallei): 0.5 to 8 µg/mL (≈ 0.863 to 13.8 µM); MIC50 (B. mallei): ≤ 0.03 µg/mL; MIC90 (B. mallei): 0.12 µg/mL (≈ 0.207 µM); MIC (B. mallei): 0.03 to 0.5 µg/mL (≈ 0.0518 to 0.863 µM); MIC [1]: 4 µg/mL; MIC (E. coli MG1655 parent): 0.25 µg/mL (≈ 0.432 µM); MIC [2]: 0.5 µg/mL (≈ 0.863 µM); MIC (K. pneumoniae 1705966): 0.25 µg/mL (≈ 0.432 µM)
3 | C[C@H](NCCCNC(=N)N)c1ccc(-n2cc3cc(-c4cc(CCC[C@@H](N)CO)cc(Cl)c4F)[nH]c3nc2=O)cc1 [Compound 5] | 0.25 | 0.125 (≈ 0.214 µM) | 8 (≈ 13.7 µM) | 0.125 (≈ 0.214 µM) | 0.06 (≈ 0.103 µM) | 0.12 (≈ 0.206 µM) | 0.12 (≈ 0.206 µM) | 0.03 to 2 (≈ 0.0514 to 3.43 µM) | 0.25 (≈ 0.429 µM) | 0.5 (≈ 0.857 µM) | ≤ 0.03 | ≤ 0.03 | 0.03 to 0.25 (≈ 0.0514 to 0.429 µM) | 0.25 (≈ 0.429 µM) | 2 (≈ 3.43 µM) | 2 (≈ 3.43 µM) | 0.5 (≈ 0.857 µM) | 4 (≈ 6.86 µM) | 4 (≈ 6.86 µM) | 16 (≈ 27.4 µM) | MIC (Y. pestis): 0.03 to 2 µg/mL (≈ 0.0514 to 3.43 µM); MIC90 (B. pseudomallei): 16 µg/mL (≈ 27.4 µM); MIC50 (B. mallei): 0.06 µg/mL (≈ 0.103 µM); MIC90 (B. mallei): 0.25 µg/mL (≈ 0.429 µM); MIC (B. mallei): 0.03 to 0.5 µg/mL (≈ 0.0514 to 0.857 µM); MIC [1]: 1 µg/mL; MIC (E. coli MG1655 parent): 0.5 µg/mL (≈ 0.857 µM); MIC [2]: 0.125 µg/mL (≈ 0.214 µM); MIC (K. pneumoniae 1705966): 0.125 µg/mL (≈ 0.214 µM)
4 | COC[C@H](N)CCCc1cc(Cl)c(F)c(-c2cc3cn(-c4ccc(CNCCCNC(=N)N)cc4)c(=O)nc3[nH]2)c1 [Compound 6] | 0.25 | 0.5 (≈ 0.857 µM) | 8 (≈ 13.7 µM) | 0.25 (≈ 0.429 µM) | 0.25 (≈ 0.429 µM) | 0.5 (≈ 0.857 µM) | 0.5 (≈ 0.857 µM) | 0.06 to 1 (≈ 0.103 to 1.71 µM) | 0.25 (≈ 0.429 µM) | > 16 | ≤ 0.03 | 0.06 (≈ 0.103 µM) | 0.03 to 1 (≈ 0.0514 to 1.71 µM) | 0.25 (≈ 0.429 µM) | 1 (≈ 1.71 µM) | 4 (≈ 6.86 µM) | 2 (≈ 3.43 µM) | 4 (≈ 6.86 µM) | 8 (≈ 13.7 µM) | 8 (≈ 13.7 µM) | MIC90 (B. pseudomallei): 16 µg/mL (≈ 27.4 µM); MIC (B. pseudomallei): 1 to 32 µg/mL (≈ 1.71 to 54.9 µM); MIC50 (B. mallei): ≤ 0.03 µg/mL; MIC90 (B. mallei): 0.12 µg/mL (≈ 0.206 µM); MIC (B. mallei): 0.03 to 0.5 µg/mL (≈ 0.0514 to 0.857 µM); MIC [1]: 4 µg/mL; MIC (E. coli MG1655 parent): 0.25 µg/mL (≈ 0.429 µM); MIC [2]: 0.25 µg/mL (≈ 0.429 µM); MIC (K. pneumoniae 1705966): 0.5 µg/mL (≈ 0.857 µM)
5 | C=C[C@H](NCCCNC(=N)N)c1ccc(-n2cc3cc(-c4cc(CCC[C@H](C)N)cc(Cl)c4F)[nH]c3nc2=O)cc1 [Compound 10] | 0.25 | 0.25 (≈ 0.432 µM) | 4 (≈ 6.91 µM) | 0.25 (≈ 0.432 µM) | 0.25 (≈ 0.432 µM) | 0.12 (≈ 0.207 µM) | 0.25 (≈ 0.432 µM) | 0.03 to 0.25 (≈ 0.0518 to 0.432 µM) | ≤ 0.03 | 0.06 (≈ 0.104 µM) | ≤ 0.03 | 0.06 (≈ 0.104 µM) | 0.03 to 4 (≈ 0.0518 to 6.91 µM) | 0.25 (≈ 0.432 µM) | 0.5 (≈ 0.863 µM) | 2 (≈ 3.45 µM) | 0.5 (≈ 0.863 µM) | 2 (≈ 3.45 µM) | 4 (≈ 6.91 µM) | 1 (≈ 1.73 µM) | MIC (Y. pestis): 0.03 to 0.25 µg/mL (≈ 0.0518 to 0.432 µM); MIC90 (B. pseudomallei): 2 µg/mL (≈ 3.45 µM); MIC (B. pseudomallei): 0.25 to 8 µg/mL (≈ 0.432 to 13.8 µM); MIC50 (B. mallei): ≤ 0.03 µg/mL; MIC90 (B. mallei): 0.12 µg/mL (≈ 0.207 µM); MIC (B. mallei): 0.03 to 0.25 µg/mL (≈ 0.0518 to 0.432 µM); MIC [1]: 0.5 µg/mL; MIC (E. coli MG1655 parent): 0.25 µg/mL (≈ 0.432 µM); MIC [2]: 0.25 µg/mL (≈ 0.432 µM); MIC (K. pneumoniae 1705966): 0.25 µg/mL (≈ 0.432 µM)
6 | C=C[C@@H](NCCCNC(=N)N)c1ccc(-n2cc3cc(-c4cc(CCC[C@H](C)N)cc(Cl)c4F)[nH]c3nc2=O)cc1 [Compound 11] | 0.5 | 0.25 (≈ 0.432 µM) | 8 (≈ 13.8 µM) | 0.5 (≈ 0.863 µM) | 0.25 (≈ 0.432 µM) | 0.25 (≈ 0.432 µM) | 0.5 (≈ 0.863 µM) | 0.12 to 0.5 (≈ 0.207 to 0.863 µM) | ≤ 0.03 | 0.12 (≈ 0.207 µM) | 0.06 (≈ 0.104 µM) | 0.25 (≈ 0.432 µM) | 0.03 to 4 (≈ 0.0518 to 6.91 µM) | 0.25 (≈ 0.432 µM) | 0.5 (≈ 0.863 µM) | 1 (≈ 1.73 µM) | 8 (≈ 13.8 µM) | 4 (≈ 6.91 µM) | 4 (≈ 6.91 µM) | 1 (≈ 1.73 µM) | MIC (Y. pestis): 0.03 to 0.5 µg/mL (≈ 0.0518 to 0.863 µM); MIC90 (B. pseudomallei): 4 µg/mL (≈ 6.91 µM); MIC (B. pseudomallei): 0.25 to 8 µg/mL (≈ 0.432 to 13.8 µM); MIC50 (B. mallei): ≤ 0.03 µg/mL; MIC90 (B. mallei): 0.12 µg/mL (≈ 0.207 µM); MIC (B. mallei): 0.03 to 0.25 µg/mL (≈ 0.0518 to 0.432 µM); MIC [1]: 4 µg/mL; MIC (E. coli MG1655 parent): 0.25 µg/mL (≈ 0.432 µM); MIC [2]: 2 µg/mL (≈ 3.45 µM); MIC (K. pneumoniae 1705966): 1 µg/mL (≈ 1.73 µM)
